These results are taken from patent US8173668B1 (Alcon Research, Ltd., priority 2007, dated 2012).

The target of assay [1] is human cloned B2-receptors (Homo sapiens, UniProt P30411). Briefly: HTRF-based assay of endogenous IP1 production in CHO cells. Particulars: CHO cells expressing human cloned B2-receptors, read-out: EC50, production of endogenous IP1 from PI turnover. The assay is classed as cell-based. A general note: TR-FRET usually uses a lanthanide donor and a delayed reading to cut background.
Sequence of human cloned B2-receptors (P30411 whole entry): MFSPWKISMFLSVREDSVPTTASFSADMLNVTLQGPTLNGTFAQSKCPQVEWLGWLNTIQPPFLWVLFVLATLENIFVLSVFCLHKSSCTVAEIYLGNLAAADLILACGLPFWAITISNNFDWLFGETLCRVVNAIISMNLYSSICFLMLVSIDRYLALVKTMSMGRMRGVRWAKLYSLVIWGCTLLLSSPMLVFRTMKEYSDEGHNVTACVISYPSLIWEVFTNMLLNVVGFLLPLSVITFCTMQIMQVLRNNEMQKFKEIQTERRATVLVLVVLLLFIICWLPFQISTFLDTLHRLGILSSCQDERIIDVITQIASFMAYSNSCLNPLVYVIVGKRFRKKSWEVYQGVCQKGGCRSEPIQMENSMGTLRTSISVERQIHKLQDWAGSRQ
Procedure: The cells are suspended in IP1 stimulation buffer containing Hepes 10 mM, CaCl2 1 mM, MgCl2 0.5 mM, KCl 4.2 mM, NaCl 146 mM, Glucose 5.5 mM, LiCl 50 mM pH 7.4, then distributed in microplates at a density of 40,000 cells/well (B2 receptor assays) or 30,000 cells/well (B1 receptor assays). Test compounds are added to the cells at various concentrations and incubated for 20 min at 37° C. […] Following the 20 min incubation at 37° C., the cells are lysed and the fluorescence acceptor (D2-labeled IP1) and fluorescence donor (anti-IP1 antibody labeled with europium cryptate) are added. After 60 min at room temperature, the fluorescence transfer is measured at λex=337 nm and λem=620 and 665 nm using a microplate reader.

Assay [2] concerns ocular hypertensive eyes of ketamine-sedated cynomolgus monkeys. Briefly: Aqueous humor dynamics (fluorophotometry, tonography) in ketamine-sedated cynomolgus monkeys. The assay is classed as in vivo. Conditions: Treatment Day, Hypertensive Eye OS; one drop of 30 μl 0.01% the day before; mean ± SD. An excerpt:
Methods used in this Example were described by Yablonski et al. Invest Ophthalmol V is Sci 1987; 28:2076-2082; Hayashi et al. Exp Eye Res 1989; 48:621-625; Mäepea et al. Exp Eye Res 1989; 49:645-663, and as below:
Twelve female cynomolgus monkeys between the ages of 5 and 8 years were included in the study. All had unilateral laser treatment to the trabecular meshwork of the left eye. Lasering had been done between 2 and 4 years before the study.
Measurements were made on baseline day and after AL-42205-01 (FR-190997) treatment to both eyes. When necessary, sedation was induced by ketamine hydrochloride (HCl), 1 to 5 mg/kg, administered intramuscularly 5 minutes before a measurement to achieve pharmacological restraint. Animals were seated in specially designed chairs for all tonometry and fluorophotometry measurements. Fifteen hours prior to each study day, IOP1 was measured with a pneumatonometer (Classic 30, Xomed, Jacksonville, Fla.) after topical application of proparacaine HCl, 0.13%. Fluorescein (10%) was applied to the cornea by topical drops. Measurements commenced at 8:30-9:00 a.m. the following day with tonometry (IOP2). The fluorescence of the cornea and anterior chamber were measured in duplicate with a scanning fluorophotometer (Fluorotron, OcuMetrics, Palo Alto, Calif.). Scans were taken at 45 minute intervals for a total of 4 sets.
After the fourth set of scans and another IOP measurement (IOP3), an intramuscular injection of acetazolamide (12-20 mg/kg) was administered to reduce IOP by reducing aqueous flow. The dose of acetazolamide for individual monkeys depended on its IOP efficacy in previous studies. Fluorophotometric scans and IOP measurements were repeated 0.75, 1.50 and 2.25 hours after acetazolamide injection. Fluorophotometric outflow facility (Cfl) was calculated as the ratio of the change in aqueous flow to the change in IOP. Uveoscleral outflow (Fus) was calculated by the equation Fus=Fa−Cfl (IOP3−Pev) where Pev is the episcleral venous pressure. A value of 15 mmHg was used. The final measurement was two-minute tonography. The tonography mode of the pneumatonometer was used. Calculations were made using PowerLab and Excel.
Treatment measurements were collected between 6 and 21 days after baseline measurements. The day before the measurement day, conscious IOP was measured (IOP1; 9:00 AM) and one drop of 30 μl of AL-42205-01 0.01% (in matrix vehicle) was applied to both eyes. The drug was used within a week of receipt. It was stored refrigerated before use. Conscious IOP was measured again (IOP2; 5 PM) just before fluorescein was applied as before. The day of fluorophotometry, all measurements were made under sedation as on baseline day.
Values were compared between eyes on each day and baseline values were compared with post-treatment values using Student's two-tailed paired t-test (Table 11). Values are reported as means± standard deviation (SD).

In assay [3] the test system is rabbits (New Zealand White and Dutch-Belted). In words: IOP-lowering activity in rabbits. The class given is in vivo. An excerpt:
(§1) Some obvious drawbacks and reasons for the lack of consistent observations noted above are probably related to species differences in the effects of BK on IOP changes and on the fact that BK is a labile peptide that can easily and rapidly be inactivated by kininases and other proteases when it comes into contact with body fluids (Hall, Pharmacol. Ther., 56, 131-190, 1992). Additionally, topical ocular administration of peptides such as BK are confounded by the potential lack of or little bioavailability through the cornea to reach the anterior segment of the eye. […] This is probably related to the attainment of a relevant concentration in the aqueous humor and ciliary body when the compound was administered topical ocularly.
IOP is determined with an applanation pneumatonometer after light corneal anesthesia with 0.1% proparacaine. After baseline IOP measurements are taken, one eye of each of 7-10 (or both eyes of 5) rabbits per compound dose is topically dosed with compound. Either the contralateral eye is dosed with vehicle or a separate group of rabbits is used for vehicle control. Subsequent IOP measurements are taken at 0.5, 1, 2, 3, and 4 hours. In cases where the compound has poor ocular bioavailability, the compound may need to be administered intracamerally or intravitreally in order to observe the IOP-lowering efficacy.

Assay [4] has as its system guinea pigs. Briefly: IOP-lowering activity in guinea pigs. The assay is classed as in vivo.
Excerpt: as §1

What is called EC50 is the concentration that produces a half-maximal response.

With `CNC(=O)c1ccc(/C=C/C(=O)NCC(=O)N(C)c2ccc(Cl)c(COc3cccc4c(OCc5ccccn5)cc(C)nc34)c2Cl)cc1` [FR-190997], the concentration giving a half-maximal response (EC50) in assay [1] is 21 nM. In assay [2], the “Cfl, fluorophotometric outflow facility” value was 0.18 ± 0.16 μl/min/mmHg; the “Cton, tonographic outflow facility” value came to 0.17 ± 0.11 μl/min/mmHg; the “Fa, aqueous flow” value was 1.48 ± 0.53 µL/min; the “Fufl, uveoscleral outflow calculated with Cfl” value was 1.23 ± 0.91 µL/min. Besides, the “Futon, uveoscleral outflow calculated with Cton” value in assay [2] was 1.45 ± 0.45 µL/min. In addition, the “ability to lower IOP” value in assay [3] was “unable to lower IOP”. For the same compound, in assay [4], the “ability to lower IOP” value is listed as “unable to lower IOP”.
